Data reported in ChEMBL document CHEMBL1201862, “PubChem BioAssay data set” (2004).
Calls of active or inactive are those of the source.

Key:
[1] = molecular target: Ubiquitin carboxyl-terminal hydrolase BAP1 (Homo sapiens, UniProt Q92560); assay: BAP1 deubiquitinase inhibitors, dose response, biochemical (AID 714); assay type: functional
[2] = molecular target: T1, Heat shock factor protein 1 (Mus musculus, UniProt P38532); assay: HSF1 potentiators in luciferase reporter cells, confirmation, cell-based, NIH3T3, luminescence, dose retest (AID 435004); assay type: functional;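 further: stress induced by proteasome inhibitor MG132 added 30 min after compound; luciferase reporter driven by HSF1 response element in NIH3T3 cells; actives raise luminescence as potentiators of the MG132 stress response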
T1 sequence (P38532 whole entry): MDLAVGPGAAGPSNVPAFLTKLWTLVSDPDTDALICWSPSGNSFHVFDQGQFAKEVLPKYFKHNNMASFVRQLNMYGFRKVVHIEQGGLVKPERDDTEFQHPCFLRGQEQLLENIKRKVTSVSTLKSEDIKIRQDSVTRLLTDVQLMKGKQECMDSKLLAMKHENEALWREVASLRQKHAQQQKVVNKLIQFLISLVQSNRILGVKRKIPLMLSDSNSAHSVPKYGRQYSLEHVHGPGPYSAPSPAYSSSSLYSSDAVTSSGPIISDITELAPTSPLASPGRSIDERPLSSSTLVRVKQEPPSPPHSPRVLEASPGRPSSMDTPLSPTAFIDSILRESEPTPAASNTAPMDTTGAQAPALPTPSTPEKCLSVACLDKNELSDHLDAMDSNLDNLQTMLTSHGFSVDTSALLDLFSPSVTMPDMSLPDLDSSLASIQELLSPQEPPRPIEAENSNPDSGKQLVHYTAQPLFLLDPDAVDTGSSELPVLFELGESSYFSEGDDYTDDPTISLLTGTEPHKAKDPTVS

[3] = molecular target: Beta-galactosidase (Escherichia coli, UniProt Q8VNN2); assay: Dose response counterscreen for EBI2 assay utilizing the enzyme, b-galactosidase.; assay type: functional
[4] = molecular target: G-protein coupled receptor 183 (Homo sapiens, UniProt P32249); assay: SAR confirmation of small molecule antagonists of the EBI2 receptor via a luminescent beta-arrestin assa.; assay type: functional
G-protein coupled receptor 183, sequence (P32249 whole entry): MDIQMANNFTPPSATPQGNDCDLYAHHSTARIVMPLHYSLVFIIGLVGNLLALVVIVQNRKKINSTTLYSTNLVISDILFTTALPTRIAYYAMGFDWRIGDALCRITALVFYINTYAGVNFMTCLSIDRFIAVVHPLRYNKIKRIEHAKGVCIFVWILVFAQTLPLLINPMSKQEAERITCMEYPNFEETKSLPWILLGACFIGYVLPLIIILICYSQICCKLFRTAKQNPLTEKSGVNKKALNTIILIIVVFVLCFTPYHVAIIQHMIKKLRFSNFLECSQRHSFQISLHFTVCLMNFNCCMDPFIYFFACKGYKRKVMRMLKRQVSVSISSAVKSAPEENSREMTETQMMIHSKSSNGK

[5] = molecular target: Paired box protein Pax-8 (Homo sapiens, UniProt Q06710); assay: inhibitors of PAX8-driven TPO luciferase reporter, dose response, RMG-I cells, cherry-pick (AID 687027); assay type: functional, cell-based;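 further: luciferase reporter driven by Pax8 target thyroperoxidase promoter measured by SteadyGlo luminescence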
[6] = IOSE-T80 ovarian epithelial cell cytotoxicity, dose response, cytotoxicity control for PAX8 inhibitor project, plate reader, dry powder samples (AID 743045); assay type: functional, cell-based
[7] = A2780 ovarian cancer cell cytotoxicity, dose response, cytotoxicity control, plate reader, dry powder samples (AID 743046); assay type: functional, cell-based
[8] = NIH:OVCAR-3 ovarian cancer cell cytotoxicity, dose response, PAX8 inhibitor project, plate reader, dry powder samples (AID 743044); assay type: functional, cell-based
[9] = IGROV1 ovarian cancer cell cytotoxicity, dose response, PAX8 inhibitor project, plate reader, dry powder samples (AID 743043); assay type: functional, cell-based; conditions: IGROV-1
[10] = Late-stage results from the probe development effort to identify antagonists of arginine vasopressin receptor 1a (AVPR1a): fluorescence-based cell-based dose response AVPR1a inhibition assay.; assay type: functional
[11] = molecular target: Vasopressin V1b receptor (Homo sapiens, UniProt P47901); assay: Late-stage results from the probe development effort to identify antagonists of arginine vasopressin receptor 1a (AVPR1a): fluorescence-based cell-based dose response AVPR1b inhibition counterscreen assay.; assay type: functional
Vasopressin V1b receptor, sequence (P47901 whole entry): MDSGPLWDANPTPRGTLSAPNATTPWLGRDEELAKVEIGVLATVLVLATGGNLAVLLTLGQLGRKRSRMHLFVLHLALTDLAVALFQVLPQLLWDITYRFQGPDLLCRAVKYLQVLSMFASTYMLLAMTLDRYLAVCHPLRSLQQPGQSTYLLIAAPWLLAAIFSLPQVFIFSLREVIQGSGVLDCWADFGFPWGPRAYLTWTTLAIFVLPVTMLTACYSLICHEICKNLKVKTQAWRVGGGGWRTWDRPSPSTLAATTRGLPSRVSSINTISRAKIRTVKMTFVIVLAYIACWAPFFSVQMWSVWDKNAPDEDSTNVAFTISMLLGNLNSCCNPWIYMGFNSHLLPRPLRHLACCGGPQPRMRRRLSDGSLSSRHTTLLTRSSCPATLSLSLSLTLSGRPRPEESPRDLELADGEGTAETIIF

[12] = molecular target: Vasopressin V2 receptor (Homo sapiens, UniProt P30518); assay: Late-stage results from the probe development effort to identify antagonists of arginine vasopressin receptor 1a (AVPR1a): fluorescence-based cell-based dose response AVPR2 inhibition counterscreen assay.; assay type: functional
Vasopressin V2 receptor, sequence (P30518 whole entry): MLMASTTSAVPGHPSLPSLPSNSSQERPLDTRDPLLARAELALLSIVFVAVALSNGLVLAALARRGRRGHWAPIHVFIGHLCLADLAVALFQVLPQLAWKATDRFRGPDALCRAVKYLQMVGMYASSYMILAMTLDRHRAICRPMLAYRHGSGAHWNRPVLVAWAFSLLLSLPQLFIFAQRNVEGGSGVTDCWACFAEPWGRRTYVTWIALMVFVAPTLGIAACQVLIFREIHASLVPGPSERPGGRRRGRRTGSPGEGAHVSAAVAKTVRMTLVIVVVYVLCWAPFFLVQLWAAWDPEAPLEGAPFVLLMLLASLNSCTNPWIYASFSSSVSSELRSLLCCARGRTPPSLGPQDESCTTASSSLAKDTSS

[13] = Late-stage results from the probe development effort to identify antagonists of arginine vasopressin receptor 1a (AVPR1a): fluorescence-based cell-based dose response OXTR inhibition counterscreen assay.; assay type: functional
[14] = molecular target: Endoplasmic reticulum aminopeptidase 2 (Homo sapiens, UniProt Q6P179); assay: ERAP2 aminopeptidase inhibitors, dose response, selectivity assay for selective ERAP1 modulator project, biochemical, fluorescence plate reader, cherry-picked, set 2 (AID 743320)
[15] = molecular target: Endoplasmic reticulum aminopeptidase 1 (Homo sapiens, UniProt Q9NZ08); assay: ERAP1 aminopeptidase inhibitors, dose response, biochemical, cherry-pick, set 2, plate reader (AID 743314)
Endoplasmic reticulum aminopeptidase 1, sequence (Q9NZ08 whole entry): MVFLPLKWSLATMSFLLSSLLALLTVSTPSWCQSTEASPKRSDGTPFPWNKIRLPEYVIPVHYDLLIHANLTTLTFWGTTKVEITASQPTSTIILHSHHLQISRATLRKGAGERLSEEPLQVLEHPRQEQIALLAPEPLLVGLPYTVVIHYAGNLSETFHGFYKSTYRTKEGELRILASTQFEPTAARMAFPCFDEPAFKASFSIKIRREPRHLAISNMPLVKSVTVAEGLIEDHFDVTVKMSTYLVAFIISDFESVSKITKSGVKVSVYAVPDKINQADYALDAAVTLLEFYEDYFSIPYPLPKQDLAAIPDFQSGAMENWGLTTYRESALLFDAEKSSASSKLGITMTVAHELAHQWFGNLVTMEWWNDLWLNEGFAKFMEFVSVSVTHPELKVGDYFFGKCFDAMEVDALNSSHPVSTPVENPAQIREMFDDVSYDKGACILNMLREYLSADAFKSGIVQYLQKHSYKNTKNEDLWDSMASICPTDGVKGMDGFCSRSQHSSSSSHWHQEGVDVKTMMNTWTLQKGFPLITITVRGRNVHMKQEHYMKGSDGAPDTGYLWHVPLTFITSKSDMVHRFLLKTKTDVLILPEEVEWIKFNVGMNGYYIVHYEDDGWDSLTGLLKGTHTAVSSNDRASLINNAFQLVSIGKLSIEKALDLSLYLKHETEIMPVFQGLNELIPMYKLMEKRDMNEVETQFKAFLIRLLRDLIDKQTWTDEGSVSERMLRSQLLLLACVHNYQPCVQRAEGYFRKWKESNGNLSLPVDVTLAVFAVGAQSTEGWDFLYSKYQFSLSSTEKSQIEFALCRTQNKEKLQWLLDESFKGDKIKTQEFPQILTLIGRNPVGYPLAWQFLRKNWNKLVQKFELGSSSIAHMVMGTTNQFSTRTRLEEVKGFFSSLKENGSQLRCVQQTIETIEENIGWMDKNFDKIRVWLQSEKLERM

[16] = molecular target: Metabotropic glutamate receptor 5 (Rattus norvegicus, UniProt P31424); assay: Identification of a glycine sulfonamide based non-MPEP site positive allosteric potentiator (PAM) of mGlu5 (calcium_assay).; assay type: functional
Metabotropic glutamate receptor 5, sequence (P31424 whole entry, the tested form may be a part): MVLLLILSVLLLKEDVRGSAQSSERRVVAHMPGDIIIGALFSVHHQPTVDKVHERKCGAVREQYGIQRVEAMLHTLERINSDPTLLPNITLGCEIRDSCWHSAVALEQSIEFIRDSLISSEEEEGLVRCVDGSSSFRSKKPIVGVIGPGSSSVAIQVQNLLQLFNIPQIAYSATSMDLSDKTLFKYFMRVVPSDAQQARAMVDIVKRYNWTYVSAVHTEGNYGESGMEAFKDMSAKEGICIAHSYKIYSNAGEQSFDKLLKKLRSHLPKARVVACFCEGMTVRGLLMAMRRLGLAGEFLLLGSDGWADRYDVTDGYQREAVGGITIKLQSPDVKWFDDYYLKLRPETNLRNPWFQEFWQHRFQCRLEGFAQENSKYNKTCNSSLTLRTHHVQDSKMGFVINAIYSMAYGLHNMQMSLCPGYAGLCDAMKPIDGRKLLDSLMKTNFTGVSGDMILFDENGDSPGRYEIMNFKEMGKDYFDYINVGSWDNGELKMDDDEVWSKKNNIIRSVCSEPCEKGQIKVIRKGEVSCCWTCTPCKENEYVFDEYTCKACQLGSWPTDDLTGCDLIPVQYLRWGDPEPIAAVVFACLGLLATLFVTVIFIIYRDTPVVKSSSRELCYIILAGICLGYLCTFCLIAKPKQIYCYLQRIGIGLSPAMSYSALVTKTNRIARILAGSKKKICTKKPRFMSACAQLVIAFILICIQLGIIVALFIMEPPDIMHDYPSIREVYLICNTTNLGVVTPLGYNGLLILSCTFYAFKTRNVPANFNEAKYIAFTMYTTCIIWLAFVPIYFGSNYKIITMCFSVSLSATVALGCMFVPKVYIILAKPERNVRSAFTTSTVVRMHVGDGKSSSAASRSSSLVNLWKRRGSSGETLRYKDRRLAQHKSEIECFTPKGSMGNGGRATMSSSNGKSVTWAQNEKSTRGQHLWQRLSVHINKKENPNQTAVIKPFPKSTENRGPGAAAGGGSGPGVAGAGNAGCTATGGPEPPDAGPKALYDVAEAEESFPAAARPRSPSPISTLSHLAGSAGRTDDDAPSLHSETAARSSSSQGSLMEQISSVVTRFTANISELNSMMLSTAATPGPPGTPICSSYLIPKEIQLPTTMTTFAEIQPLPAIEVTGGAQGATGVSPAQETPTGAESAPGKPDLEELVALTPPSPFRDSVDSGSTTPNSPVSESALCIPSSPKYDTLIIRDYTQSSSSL

[17] = molecular target: T2, Oxysterols receptor LXR-beta (Homo sapiens, UniProt P55055); assay type: functional, cell-based;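 further: Cell-based luminescence dose-response assay of agonist activity at LXR, run as a confirmatory counterscreen to a daf-12 agonist screen; HEK293 cells with Gal4-LXR fusion and GAL4-driven luciferase reporter; agonist potency from rising luciferase signal of a Gal4-LXR reporter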
T2 sequence (P55055 whole entry): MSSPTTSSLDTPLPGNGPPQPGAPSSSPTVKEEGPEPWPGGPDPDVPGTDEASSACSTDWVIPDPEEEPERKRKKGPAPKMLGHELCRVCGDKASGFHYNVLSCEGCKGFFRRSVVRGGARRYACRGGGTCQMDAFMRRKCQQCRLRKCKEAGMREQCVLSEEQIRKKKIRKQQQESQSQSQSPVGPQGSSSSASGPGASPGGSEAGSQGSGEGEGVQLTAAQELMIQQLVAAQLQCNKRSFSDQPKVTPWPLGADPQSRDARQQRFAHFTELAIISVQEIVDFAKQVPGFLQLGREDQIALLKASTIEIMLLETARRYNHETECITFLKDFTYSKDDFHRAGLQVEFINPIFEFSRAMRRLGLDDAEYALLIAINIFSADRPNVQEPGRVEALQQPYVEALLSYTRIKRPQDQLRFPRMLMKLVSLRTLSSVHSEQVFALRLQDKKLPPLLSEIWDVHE

[18] = cells
[19] = Dose-response inhibition of insulin secretion in a rat insulinoma line at 5 mM glucose (AID 1117331); assay type: functional, cell-based; conditions: INS-1E
[20] = cells; assay type: functional, cell-based; conditions: INS-1E
[21] = molecular target: T3, Bcl-2-related protein A1 (Mus musculus, UniProt Q07440); assay: Bfl-1 inhibitors, primary screen, biochemical, fluorescence polarization, FITC-Bid, mouse (AID 432)
T3 sequence (Q07440 whole entry): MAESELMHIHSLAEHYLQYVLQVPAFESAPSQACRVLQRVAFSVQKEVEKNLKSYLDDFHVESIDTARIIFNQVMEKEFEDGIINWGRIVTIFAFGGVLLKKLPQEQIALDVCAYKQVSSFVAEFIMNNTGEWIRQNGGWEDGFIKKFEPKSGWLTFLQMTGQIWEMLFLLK

[22] = molecular target: T3, Bcl-2-related protein A1; assay: Bfl-1 inhibitors blocking BH3 peptide binding, confirmation, biochemical, TR-FRET, mouse Bfl-1 (AID 621);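 further: TR-FRET binding of GST-Bfl-1 to FITC-labelled Bid peptide via terbium antibody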
[23] = molecular target: T4, Polyadenylate-binding protein 1 (Homo sapiens, UniProt P11940); assay: PABP1 MLLE–PAM2 interaction inhibitors, dose response, miRNA deadenylation inhibitor project, biochemical, fluorescence polarization, Cy5-PAM2 peptide, secondary (AID 602260); assay type: functional; conditions: read-out: IC50_Mean
T4 sequence (P11940 whole entry): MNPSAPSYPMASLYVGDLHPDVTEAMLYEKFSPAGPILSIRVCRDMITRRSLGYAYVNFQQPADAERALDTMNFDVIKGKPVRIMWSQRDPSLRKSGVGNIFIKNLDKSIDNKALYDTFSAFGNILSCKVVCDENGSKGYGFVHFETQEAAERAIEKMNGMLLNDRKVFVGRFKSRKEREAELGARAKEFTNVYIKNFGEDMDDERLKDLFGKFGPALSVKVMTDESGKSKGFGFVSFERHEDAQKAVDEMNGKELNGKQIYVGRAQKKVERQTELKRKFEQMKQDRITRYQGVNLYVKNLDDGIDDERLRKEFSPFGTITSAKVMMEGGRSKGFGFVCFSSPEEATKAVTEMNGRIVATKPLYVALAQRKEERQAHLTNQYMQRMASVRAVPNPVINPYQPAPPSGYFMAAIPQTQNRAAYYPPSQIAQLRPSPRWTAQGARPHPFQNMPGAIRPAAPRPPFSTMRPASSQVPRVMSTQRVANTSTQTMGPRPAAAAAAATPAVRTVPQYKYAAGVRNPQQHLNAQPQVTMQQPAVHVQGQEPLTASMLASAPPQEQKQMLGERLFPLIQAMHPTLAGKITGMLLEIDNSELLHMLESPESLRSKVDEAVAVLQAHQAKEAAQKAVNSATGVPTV

[24] = molecular target: T4, Polyadenylate-binding protein 1; assay: PABP1 MLLE–PAM2 binding inhibitor potency, dose response, biochemical, fluorescence polarization, FITC-PAM2 peptide (AID 602259); assay type: functional; conditions: read-out: IC50_Mean

Ubiquitin carboxyl-terminal hydrolase BAP1, sequence (Q92560 whole entry): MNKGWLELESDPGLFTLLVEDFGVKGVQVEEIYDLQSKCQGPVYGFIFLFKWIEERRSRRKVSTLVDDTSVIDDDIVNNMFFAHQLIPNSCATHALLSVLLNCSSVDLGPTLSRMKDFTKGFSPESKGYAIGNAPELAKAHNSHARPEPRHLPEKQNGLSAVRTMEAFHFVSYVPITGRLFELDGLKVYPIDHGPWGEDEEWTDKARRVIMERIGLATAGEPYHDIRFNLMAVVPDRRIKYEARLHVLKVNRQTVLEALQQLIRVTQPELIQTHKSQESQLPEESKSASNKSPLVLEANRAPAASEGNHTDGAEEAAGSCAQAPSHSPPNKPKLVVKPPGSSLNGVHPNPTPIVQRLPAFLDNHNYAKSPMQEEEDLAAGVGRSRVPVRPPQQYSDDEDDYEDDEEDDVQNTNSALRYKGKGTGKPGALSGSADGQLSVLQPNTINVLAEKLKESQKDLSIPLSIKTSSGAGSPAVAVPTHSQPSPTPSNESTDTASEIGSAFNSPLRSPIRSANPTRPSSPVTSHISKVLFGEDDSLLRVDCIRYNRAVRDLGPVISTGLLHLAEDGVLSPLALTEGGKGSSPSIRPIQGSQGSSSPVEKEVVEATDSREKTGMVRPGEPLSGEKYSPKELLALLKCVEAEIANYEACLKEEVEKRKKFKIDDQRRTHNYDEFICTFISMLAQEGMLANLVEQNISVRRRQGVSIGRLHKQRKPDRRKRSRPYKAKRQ

O=C1CC(c2ccoc2)CC(Nc2ccccc2)=C1C(=O)Nc1ccccc1 (centres undefined)
IC50 [1]: > 50 µM (not active)
EC50 [2]: > 260 µM (inactive)

O=C(/C=C/c1ccc(Br)cc1)N1CCN(Cc2ccccc2)CC1
IC50 [3]: > 80 µM (inactive)
IC50 [4]: 0.0028 µM (active)

C[C@H](CO)N1C[C@H](C)[C@H](CN(C)Cc2ccccc2)OCCCC[C@H](C)Oc2ccc(NC(=O)Nc3ccc(C(F)(F)F)cc3)cc2C1=O
AC50 [5]: 4.95 µM (active)
AC50 [6]: 50 µM (active)
AC50 [7]: 41.4 µM (active)
AC50 [8]: 17.6 µM (active)
AC50 [9]: 26.9 µM (active)

COc1cccc(N(CC2CC2)C(=O)N2CCN(c3ccccc3C)CC2)c1
IC50 [10]: 0.057 µM (active)
IC50 [11]: 12.4 µM (inactive)
IC50 [12]: 20.6 µM (inactive)
IC50 [13]: 20.6 µM (inactive)

CC(C)[C@@H](C(=O)N[C@@H](CCc1ccc(O)cc1)C(=O)O)N(C)C(=O)[C@H](CO)NC(=O)[C@@H](O)[C@H](N)CCCCCCCCl
AC50 [14]: 1.47 µM (active)
AC50 [15]: 0.682 µM (active)

CC(C)(C)NC(=O)CN(c1ccccc1Cl)S(C)(=O)=O
EC50 [16]: > 30 µM (inactive)

COc1ccc(C(=O)/N=c2\sc3ccccc3n2C)cc1
EC50 [17]: > 67.5 µM (inactive)
EC50 [18]: > 67.5 µM (inactive)

O=C(NN1CCCC1)NS(=O)(=O)c1ccc(Cl)cc1 [GLYCLOPYRAMIDE]
IC50 [19]: 14.9 µM (inactive)
IC50 [20]: > 33.3 µM (inactive)

NC(=O)N1c2ccccc2CC(=O)c2ccccc21 [OXCARBAZEPINE]
IC50 [21]: > 100 µM (not active)
IC50 [22]: > 100 µM (not active)
IC50 [23]: > 66 µM (inactive)
IC50 [24]: 28.1 µM (inactive)
